Laboratory results reported in US20160169896A1, “Methods for Predicting and Treating Bone Metastases in Prostate Cancer Patients” (INSERM (institut NAtional de la Sante et de la Recherche …, priority 2012, published 2016).

Tested on: PC3 cells
Experiment: Real-time PCR of factor expression in PC3 cells treated with the ERRα inverse agonist XCT790 versus DMSO
Type: cell-based, human
Details: XCT790 5 10^−7M, 24 hours, compared to DMSO control
Experimental: PC3 cell line was obtained from the American Type Culture Collection (ATCC, Manassas, Va., USA). PC3 cells are routinely cultured in F12K nutrient mixture and DMEM medium (Gibco/Invitrogen; Carlsbad, Calif., USA) respectively supplemented with 10% (v/v) fetal bovine serum (FBS; Perbio/Thermo scientific; Rockford, Ill., USA) and 1% (v/v) penicillin/streptomycin (Invitrogen; Carlsbad, Calif., USA) at 37° C. in a 5% CO2 incubator.
Human ERRα cDNA (WT) was obtained from mRNA extracted from BO2-FRT cells, by using RT-PCR with specific primers ((NM_004451.3) (Fradet et al, 2011). Amplimers were sequenced for verification. The pcDNA5/ERRα-WT (WT) and empty pcDNA5 (used as control (CT)) constructs were transfected using Transfast (Promega). For clonal selection, cells were cultured for 4 weeks in the presence of puromycin (1 μg/ml PC3) (Invitrogen). XCT790, an inverse agonist of ERRα was tested in vitro on PC3 cells at 5.10^−7M compare to DMSO for 24 h.
Total RNA was extracted with Trizol reagent (Sigma) from PC3 cells, PC3 tumors, MC3T3-E1 cells. Samples of total RNA (2 μg) were reverse-transcribed using random hexamer (Promega) and the first strand synthesis kit of Superscript™ II (Invitrogen). Real-time RT-PCR was performed on a Roche Lightcycler Module (Roche) with primers specific for human and mouse. Real-time RT-PCR was carried out by using (SYBR Green; Qiagen,) on the LightCycler system on (Roche) according to the manufacturer's instructions with an initial step for 10 min at 95° C. followed by 40 cycles of 20 sec at 95° C., 10 sec at Tm (see Tables 1-2) and 10 sec at 72° C. We verified that a single peak was obtained for each product using the Roche software. Amplimers were all normalized to corresponding L32 values. Data analysis was carried out using the comparative Ct method: in real-time each replicate average genes CT was normalized to the average CT of L32 by subtracting the average CT of L32 from each replicate to give the ACT. Results are expressed as Log^-2 ΔΔCT with ΔΔCT equivalent to the ΔCT of the genes in PC3 (clone, XCT), tumors or treated MC3T3-E1 subtracting to the ACT of the endogenous control (empty vectors control for clones or tumors, DMSO for the XCT experiment and empty vectors control conditioned media treated MC3T3-E1 respectively).
To confirm the regulation of the factors identified in PC3 over-expressing ERRα, we treat PC3 cells by the inverse agonist XCT790 (5 10^−7M) for 24 hours. XCT790 is able to block the interaction between ERRα and his co-activators PGC1a and b that will have as a consequence the inhibition of ERRα transcriptional activity.

SMILES: COc1cc(/C=C(\C#N)C(=O)Nc2nnc(C(F)(F)F)s2)ccc1OCc1ccc(C(F)(F)F)cc1C(F)(F)F [XCT790, (2E)-3-(4-{[2,4-bis(trifluoromethyl)benzyl]oxy}-3-methoxyphenyl)-2-cyano-N-[5-(trifluoromethyl)-1,3,4-thiadiazol-2-yl]acrylamide]
- CK (cathepsin K) expression (real-time PCR): no CK were found statistically down-regulated
- ET1 expression (real-time PCR): identified as direct ERRα/PGC1 target genes
- MCP1 expression (real-time PCR): statistically down-regulated
- OPG expression (real-time PCR): statistically down-regulated
- Runx2 expression (real-time PCR): statistically down-regulated
- Wnt3a expression (real-time PCR): identified as direct ERRα/PGC1 target genes
- Wnt5a expression (real-time PCR): identified as direct ERRα/PGC1 target genes
